Experimental data published in patent publication US20050220718A1, “Stable pharmaceutical solution formulations for pressurized metered dose inhalers” (Chiesi Farmaceutici S.p.A., priority 2004, published 2005).

Legend:
[1] = Stability of acidified TA 2005-HFA 134a solutions in cans coated with a fluorocarbon polymer, stored upright at 50° C.; assay type: physicochemical
Experimental: Comparative Example 1 (corresponding to Example 7 of WO 01/89480). Stability of acidified TA 2005-HFA 134a solutions in cans coated with a fluorocarbon polymer.
(§1) A solution of TA 2005 (3.5 μg/50 μl) was prepared by dissolving 0.84 mg of the active ingredient in HFA 134a containing 12% w/w ethanol and 1.0% w/w of isopropyl myristate. pMDI coated cans containing 1.0, 1.4, and 1.8 μl of 0.08 M hydrochloric acid (corresponding respectively to an apparent pH of about 4.8, 3.2, and 2.9) were set down on storage, upright at 50° C., and samples taken for analysis of TA 2005 contents at appropriate intervals.
Each value is expressed as percent nominal drug concentration.

[2] = Stability study of TA 2005 HFA 134a formulations with 0.1M hydrochloric acid, upright cans at 40° C. and 75% relative humidity; assay type: physicochemical; details: TA 2005 1 μg/63 μl, 15% w/w ethanol
Experimental: Two aluminum canisters having the internal surface coated with teflon and fitted with commercial valves having a 63 μl metering chamber were filled with the following formulations shown in Table 2. A stability study was carried out by storing the formulations in upright cans at 40° C. and 75% relative humidity.

[3] = Stability study of TA 2005 HFA 134a formulation with 15.2M phosphoric acid, upright and inverted cans at 40° C. and 75% relative humidity; assay type: physicochemical; details: TA 2005 1 μg/63 μl, 15% w/w ethanol, phosphoric acid 15.2M 0.001 to 0.0027% w/w
Experimental: The formulation of Table 3 (120 actuations canister, overage of 30 actuations) was filled in aluminum canisters having the internal surface coated with teflon and fitted with commercial valves having a 63 μl metering chamber. A stability study was carried out by storing the formulation in upright and inverted cans at 40° C. and 75% relative humidity.

[4] = Stability of TA 2005 + budesonide HFA 134a compositions with phosphoric acid, 40° C. and 75% relative humidity; assay type: physicochemical; details: TA 2005 1 μg + budesonide 200 μg/actuation, phosphoric acid 85% 0.0032 or 0.0064% w/w, 0.15% w/w water
Experimental: The two compositions containing TA 2005 and budesonide as active ingredients and two different concentrations of phosphoric acid as shown in Table 4 were prepared.
Volume of the valve: 63 μl; strength: TA 2005 1 μg+budesonide 200 μg/actuation; no. of actuations: 120 (34 overfilling doses).
The two active ingredients in the compositions were stable after three months storage at 40° C. and 75% relative humidity, giving residual percent amounts of at least 95% TA 2005 and about 100% of Budesonide.

[5] = Apparent pH (acidity function pH') of acidified TA 2005 solutions; assay type: physicochemical; details: TA 2005 3.5 μg/50 μl in HFA 134a
Text: The attribution ‘apparent’ is used as pH is indeed characteristic of aqueous liquids where water is the dominant component (Mole Fraction >0.95). […] Although the Nernst equation with respect to EMF applies and the pH-meter glass electrode system will generate a variable milli-volt output according to proton concentration and vehicle polarity, the “pH” meter reading is not a true pH value. The meter reading represents an apparent pH or acidity function (pH′).
Rather concentrated, i.e., more than about 10 M, preferably more than about 12 M, and most preferably about 15 M phosphoric acid is used to adjust the apparent pH. In the examples that follow 85%, i.e., 15.2M phosphoric acid has been used. The amount of acid to be added to reach the desired apparent pH will be pre-determined in the model vehicle reported before
1.0 M hydrochloric acid was added incrementally to 50 ml of HFA 43-10MEE (Vertrel XF) containing 20% w/w ethanol and the pH′ was measured after each aliquot of acid.
as §1

[6] = 4 μg per actuation, HCl stabilized, stored upright at 5° C., after nine months (WO 03/074025); cited from earlier work
[7] = HFA propellant and ethanol, conventional aluminum or plastic coated glass cans; 40° C., 75% relative humidity, one month (WO 99/65460); cited from earlier work

Row | Structure (SMILES) | TA 2005 content, percent nominal drug concentration, 50° C.; 22 days upright ([1]; 1.0 μl 0.08M HCl per can) | TA 2005 content, percent nominal drug concentration, 50° C.; 83 days upright ([1]; 1.0 μl 0.08M HCl per can) | TA 2005 content, percent nominal drug concentration, Initial ([1]; 1.0 μl 0.08M HCl per can, TA 2005 3.5 μg/50 μl, 12% w/w ethanol, 1.0% w/w isopropyl myristate) | TA 2005 content, percent nominal drug concentration, 50° C.; 22 days upright ([1]; 1.4 μl 0.08M HCl per can) | TA 2005 content, percent nominal drug concentration, 50° C.; 83 days upright ([1]; 1.4 μl 0.08M HCl per can) | TA 2005 content, percent nominal drug concentration, Initial ([1]; 1.4 μl 0.08M HCl per can) | TA 2005 content, percent nominal drug concentration, 50° C.; 22 days upright ([1]; 1.8 μl 0.08M HCl per can) | TA 2005 content, percent nominal drug concentration, 50° C.; 83 days upright ([1]; 1.8 μl 0.08M HCl per can) | TA 2005 content, percent nominal drug concentration, Initial ([1]; 1.8 μl 0.08M HCl per can) | percent amount of TA 2005 after three months of storage ([2]; 0.1M HCl 0.018% w/w) | percent amount of TA 2005 after three months of storage ([2]; 0.1M HCl 0.027% w/w) | residual percent amount of TA 2005 after three months of storage [3] | residual percent amount after three months storage [4] | apparent pH ([5]; 1.0 μl of 0.08 M hydrochloric acid per can) | apparent pH ([5]; 1.4 μl of 0.08 M hydrochloric acid per can) | apparent pH ([5]; 1.8 μl of 0.08 M hydrochloric acid per can) | TA 2005 assay [6] | loss of drug [7]
1 | COc1ccc(C[C@@H](C)NC[C@H](O)c2ccc(O)c3[nH]c(=O)ccc23)cc1.Cl [TA 2005, 8-hydroxy-5-[(1R)-1-hydroxy-2-[[(1R)-2-(4-methoxyphenyl)-1-methylethyl]amino]ethyl]-2(1H)-quinolinone hydrochloride] | 98.3% | 99.4% | 100.0% | 98.2% | 98.8% | 100.0% | 90.2% | 88.1% | 100.0% | 73% | 77% | up to 98% | at least 95% | about 4.8 | ~3.2 | ~2.9 | higher than 95% | 
2 | COc1ccc(C[C@@H](C)NC[C@H](O)c2ccc(O)c(NC=O)c2)cc1.COc1ccc(C[C@@H](C)NC[C@H](O)c2ccc(O)c(NC=O)c2)cc1.O=C(O)/C=C/C(=O)O [formoterol fumarate] |  |  |  |  |  |  |  |  |  |  |  |  |  |  |  |  |  | about 10%
